Test results reported in patent publication US20100105777A1, “AMIDE OR THIOAMIDE DERIVATIVES AND THEIR USE IN THE TREATMENT OF PAIN” (CARA THERAPEUTICS, INC., priority 2004, published 2010).

Experiments:
Format in all cases: in vivo
[1] = tested on: rat model of chronic pain (L5/L6 spinal nerve ligation); test: L5/L6 nerve ligation injury, tactile allodynia (von Frey)
Protocol: (§1) Inflammatory (Formalin flinch test) and chronic pain (L5/L6 nerve ligation injury) models were used as assays in both rats and mice.
(§2) Nerve ligation injury was performed according to the method described previously (Kim and Chung). This methodology produces signs of tactile allodynia and thermal hyperalgesia. Rats were anesthetized with halothane and the L5 and L6 spinal nerves were exposed, carefully isolated, and tightly ligated with 4-0 silk suture distal to the dorsal root ganglia (DRG). After ensuring homeostatic stability the wounds were sutured, and the animals were allowed to recover in individual cages. Sham-operated rats were prepared in an identical fashion except that the L5 and L6 spinal nerves were not ligated. Compound 17 was tested in rats after L5/L6 nerve ligation. Compound administration was directly into the hind paw (i.paw) or into the peritoneal cavity (i.p.).
In the evaluation of the tactile allodynia, the paw withdrawal threshold was determined in response to probing with calibrated von Frey filaments. The rats were kept in suspended cages with wire mesh floors and the von Frey filaments were applied perpendicularly to the planar surface of the paw of the rat until it bent slightly, and was held for 3 to 6 s, or until the paw is withdrawn. […] The 50% paw withdrawal threshold was determined by the nonparametric method. […]

[2] = tested on: rat model of chronic pain (L5/L6 spinal nerve ligation); test: L5/L6 nerve ligation injury, thermal hyperalgesia
Protocol: as §1, §2

[3] = tested on: rat model of inflammatory pain (formalin-injected paw); test: Formalin flinch test; details: i.p.
Protocol: as §1
Animals are habituated to the their local environment for about 30 min prior to testing. The formalin test is carried out in a 30×30×30 cm chamber with the front and bottom of the chambers made of clear plexi-glass. Mirrors are placed at a 45° angle under the chambers in order to have an un-obstructive view of the paws. Animals are restrained manually and 2% formalin (aq) is injected subcutaneously into the planar surface of the left paw with a 30 gauge needle. The numbers of paw flinches are then recorded in 5 min intervals from the time of injection for a 60 min period. Elevations of the paw, licking and biting of the injected paw were counted as “flinches”. The […] or “first phase” of the nociceptive response peaked at 5 min after formalin injection and the inflammatory or “second phase” peaked at 30 min after formalin injection. The number of flinches in the first 10 min were representative of the […] phase and the number of flinches from 10 min until 60 min were representative of the inflammatory phase. Antinociception for both phase I and phase II was calculated as follows: […]
Potency (A50) is calculated from the full dose response curve for both phase I and phase II.

With `NC(=O)CCCN(CCCC1CCCCC1)C(=O)Nc1ccccc1` [Compound 17, 4-[1-(3-cyclohexylpropyl)-3-phenylureido]butyramide] the antiallodynic effect ([1]; 100 μg (in 50 μl) into the paw) was 90%, the “A50 L5/L6 antiallodynia” value ([1]; i.paw) was under 30 mg/paw and the “antihyperalgesic response to thermal testing” value ([2]; 30 μg (in 50 μl) into the paw) was 100%. The “A50 L5/L6 antihyperalgesia” value ([2]; i.paw) was under 30 μg/paw, the “A50 Formalin Phase I” value ([3]; phase I (first 10 min)) was under 0.01 mg/kg and the “A50 Formalin Phase II” value ([3]; phase II (10-60 min)) was 0.01 mg/kg.
